{
  "source": "ChEMBL document CHEMBL1133041",
  "about": "“Synthetic conversion of ACAT inhibitor to acetylcholinesterase inhibitor” (Bioorg Med Chem Lett, 2000)",
  "key": {"Acetylcholinesterase [1]": {"molecular_target": "T1, Acetylcholinesterase (Homo sapiens, UniProt P22303)", "T1 sequence (P22303 whole entry)": "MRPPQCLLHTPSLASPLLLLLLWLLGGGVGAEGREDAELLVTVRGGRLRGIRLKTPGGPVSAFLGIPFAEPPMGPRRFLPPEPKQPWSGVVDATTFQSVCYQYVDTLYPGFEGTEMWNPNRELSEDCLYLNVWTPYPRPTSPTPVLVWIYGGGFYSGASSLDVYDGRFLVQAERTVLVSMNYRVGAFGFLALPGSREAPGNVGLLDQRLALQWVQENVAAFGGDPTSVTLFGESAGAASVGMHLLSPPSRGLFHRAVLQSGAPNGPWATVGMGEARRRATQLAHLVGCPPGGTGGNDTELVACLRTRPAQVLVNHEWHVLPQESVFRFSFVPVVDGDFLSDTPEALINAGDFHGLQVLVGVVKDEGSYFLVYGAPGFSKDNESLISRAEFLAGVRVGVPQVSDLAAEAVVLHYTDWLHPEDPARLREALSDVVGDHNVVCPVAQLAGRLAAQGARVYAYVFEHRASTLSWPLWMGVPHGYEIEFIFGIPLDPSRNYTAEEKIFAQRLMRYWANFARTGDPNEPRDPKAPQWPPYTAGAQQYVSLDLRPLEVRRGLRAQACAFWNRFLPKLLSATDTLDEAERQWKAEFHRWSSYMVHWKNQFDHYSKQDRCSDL", "assay": "Inhibitory activity against Acetylcholinesterase; call rule not given here"}, "[2]": {"molecular_target": "T2, Sterol O-acyltransferase 1 (Homo sapiens, UniProt P35610)", "T2 sequence (P35610 whole entry)": "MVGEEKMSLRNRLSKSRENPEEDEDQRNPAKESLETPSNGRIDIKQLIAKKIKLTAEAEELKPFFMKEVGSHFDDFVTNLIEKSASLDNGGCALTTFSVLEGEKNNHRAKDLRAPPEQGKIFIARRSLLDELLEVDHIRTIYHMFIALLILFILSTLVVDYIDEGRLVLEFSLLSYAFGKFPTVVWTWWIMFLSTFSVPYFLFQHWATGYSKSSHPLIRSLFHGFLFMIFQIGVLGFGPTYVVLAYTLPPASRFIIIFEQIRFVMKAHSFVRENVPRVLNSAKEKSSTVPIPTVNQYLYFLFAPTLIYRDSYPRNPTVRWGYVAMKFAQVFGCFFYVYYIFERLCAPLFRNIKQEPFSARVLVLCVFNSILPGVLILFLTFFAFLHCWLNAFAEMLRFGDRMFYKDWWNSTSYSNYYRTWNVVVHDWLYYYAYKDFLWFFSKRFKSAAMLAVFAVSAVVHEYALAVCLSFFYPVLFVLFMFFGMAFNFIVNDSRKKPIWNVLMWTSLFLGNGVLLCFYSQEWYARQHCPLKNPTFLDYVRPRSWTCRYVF", "assay": "Inhibitory activity against acyl-CoA:cholesterol acyltransferase (ACAT); no inhibition >1000"}, "Acetylcholinesterase [3]": {"molecular_target": "T1, Acetylcholinesterase", "assay": "Inhibitory activity against Acetylcholinesterase; no inhibition at 100 uM"}, "[4]": {"molecular_target": "T2, Sterol O-acyltransferase 1", "assay": "Inhibitory activity against acyl-CoA:cholesterol acyltransferase (ACAT)"}},
  "data": [
    {"smiles": "COc1ccc(-c2cc3c(c(=O)o2)C(=O)C2[C@@]4(C)CC[C@H](O)[C@@](C)(CO)C4C[C@H](O)[C@@]2(C)O3)cc1", "note": "(stereo partly specified)", "values": [
      {"measurement": "IC50", "setting": "Acetylcholinesterase [1]", "result": 70, "unit": "µM"},
      {"measurement": "IC50", "setting": "[2]", "result": "Not Active"}
    ]},
    {"smiles": "COc1cccc(-c2cc3c(c(=O)o2)C(=O)C2[C@@]4(C)CC[C@H](O)[C@@](C)(CO)C4C[C@H](O)[C@@]2(C)O3)c1", "note": "(stereo partly specified)", "values": [
      {"measurement": "IC50", "setting": "Acetylcholinesterase [1]", "result": "> 93", "unit": "µM"}
    ]},
    {"smiles": "C[C@]12CC[C@H](O)[C@@](C)(CO)C1C[C@H](O)[C@@]1(C)Oc3cc(-c4ccncc4)oc(=O)c3C(=O)C21", "note": "(stereo partly specified)", "values": [
      {"measurement": "IC50", "setting": "Acetylcholinesterase [1]", "result": 7.9, "unit": "µM"},
      {"measurement": "IC50", "setting": "[2]", "result": "No inhibition"}
    ]},
    {"smiles": "COc1ccc(-c2cc3c(c(=O)o2)C(=O)C2[C@@]4(C)CC[C@H](O)[C@@](C)(CO)C4C[C@H](O)[C@@]2(C)O3)cc1OC", "note": "(stereo partly specified)", "values": [
      {"measurement": "IC50", "setting": "Acetylcholinesterase [1]", "result": 58, "unit": "µM"}
    ]},
    {"smiles": "C[C@]12CC[C@H](O)[C@@](C)(CO)C1C[C@H](O)[C@@]1(C)Oc3cc(-c4ccc(Cl)nc4)oc(=O)c3C(=O)C21", "note": "(stereo partly specified)", "values": [
      {"measurement": "IC50", "setting": "Acetylcholinesterase [1]", "result": 80, "unit": "µM"}
    ]},
    {"smiles": "C[C@]12CC[C@H](O)[C@@](C)(CO)C1C[C@H](O)[C@@]1(C)Oc3cc(-c4ccccn4)oc(=O)c3C(=O)C21", "note": "(stereo partly specified)", "values": [
      {"measurement": "IC50", "setting": "Acetylcholinesterase [1]", "result": 101, "unit": "µM"}
    ]},
    {"smiles": "CC(=O)OC[C@@]1(C)C2C[C@H](OC(C)=O)[C@@]3(C)Oc4cc(-c5cccnc5)oc(=O)c4[C@H](O)C3[C@@]2(C)CC[C@@H]1OC(C)=O", "note": "(stereo partly specified)", "values": [
      {"measurement": "IC50", "setting": "Acetylcholinesterase [3]", "result": "No inhibition"}
    ]},
    {"smiles": "C[C@]12CC[C@H](O)[C@@](C)(CO)C1C[C@H](O)[C@@]1(C)Oc3cc(-c4cccnc4)oc(=O)c3C(=O)C21", "note": "(stereo partly specified)", "values": [
      {"measurement": "IC50", "setting": "Acetylcholinesterase [1]", "result": 35, "unit": "µM"}
    ]},
    {"smiles": "C[C@]12CC[C@H](O)[C@@](C)(CO)C1C[C@H](O)[C@@]1(C)Oc3cc(-c4ccccc4)oc(=O)c3C(=O)C21", "note": "(stereo partly specified)", "values": [
      {"measurement": "IC50", "setting": "Acetylcholinesterase [1]", "result": 99, "unit": "µM"}
    ]},
    {"smiles": "COc1ccc(-c2cc3c(c(=O)o2)C[C@]2(O)[C@@]4(C)C(=O)C=CC(C)(C)[C@]4(O)CC[C@@]2(C)O3)cc1", "values": [
      {"measurement": "IC50", "setting": "Acetylcholinesterase [1]", "result": 0.026, "unit": "µM"}
    ]},
    {"smiles": "COc1ccc(-c2cc3c(c(=O)o2)C[C@]2(O)[C@@]4(C)C(=O)C=CC(C)(C)[C@]4(O)CC[C@@]2(C)O3)cc1OC", "values": [
      {"measurement": "IC50", "setting": "Acetylcholinesterase [1]", "result": 0.001, "unit": "µM"},
      {"measurement": "IC50", "setting": "[4]", "result": "> 50", "unit": "µM"}
    ]},
    {"smiles": "COc1cc(-c2cc3c(c(=O)o2)C[C@]2(O)[C@@]4(C)C(=O)C=CC(C)(C)[C@]4(O)CC[C@@]2(C)O3)cc(OC)c1OC", "note": "[TERRITREM B]", "values": [
      {"measurement": "IC50", "setting": "Acetylcholinesterase [1]", "result": 0.008, "unit": "µM"},
      {"measurement": "IC50", "setting": "[4]", "result": "> 50", "unit": "µM"}
    ]}
  ]
}
